The subject of one test is DU145. As to the kind of experiment: DU145 scattering inhibition. The settings on record: Homo sapiens, DU-145; DU145 cells; read-out: Potency in cell-based assays DU145 scattering inhibition.
Another test addresses T1, VEGF receptor KDR (Homo sapiens, UniProt P35968).
T1 construct: made in house; host or cells: Sf9 cells (Spodoptera frugiperda), recombinant baculovirus
Nature of the test: In vitro receptor tyrosine kinase assay, VEGF receptor KDR (DELFIA). In kind it is biochemical. The conditions noted are these: ATP 0.6 uM, enzyme 5 nM; read-out: Potency in enzyme assays VEGF. The source says:
(§1) These tests measure the ability of compounds to inhibit the enzymatic activity of recombinant human c-Met/HGF receptor and VEGF receptor enzymatic activity.
In the case of VEGF receptor KDR a 1.6-kb cDNA corresponding to the catalytic domain of VEGFR2 or KDR (Genbank accession number AF035121 amino acid 806 to 1356) is cloned into the Pst I site of the pDEST20 Gateway vector (Invitrogen) for the production of a GST-tagged version of that enzyme. This construct is used to generate recombinant baculovirus using the Bac-to-Bac system according to the manufacturer's instructions (Invitrogen).
The GST-VEGFR2806-1356 protein is expressed in Sf9 cells (Spodoptera frugiperda) upon infection with recombinant baculovirus construct. Briefly, Sf9 cells grown in suspension and maintained in serum-free medium (Sf900 II supplemented with gentamycin) at a cell density of about 2×10^6 cells/ml are infected with the above-mentioned viruses at a multiplicity of infection (MOI) of 0.1 during 72 hours at 27° C. with agitation at 120 rpm on a rotary shaker. Infected cells are harvested by centrifugation at 398 g for 15 min. Cell pellets are frozen at −80° C. until purification is performed.
All steps described in cell extraction and purification are performed at 4° C. Frozen Sf9 cell pellets infected with the GST-VEGFR2806-1356 recombinant baculovirus re thawed and gently resuspended in Buffer A (PBS pH 7.3 supplemented with 1 μg/ml pepstatin, 2 μg/ml Aprotinin and leupeptin, 50 μg/ml PMSF, 50 μg/ml TLCK and 10 μM E64 and 0.5 mM DTT) using 3 ml of buffer per gram of cells. Suspension is Dounce homogenized and 1% Triton X-100 is added to the homogenate after which it is centrifuged at 22500 g, 30 min., 4° C. The supernatant (cell extract) is used as starting material for purification of GST-VEGFR2806-1356.
The supernatant is loaded onto a GST-agarose column (Sigma) equilibrated with PBS pH 7.3. Following a four column volume (CV) wash with PBS pH 7.3+1% Triton X-100 and 4 CV wash with buffer B (50 mM Tris pH 8.0, 20% glycerol and 100 mM NaCl), bound proteins are step eluted with 5 CV of buffer B supplemented with 5 mM DTT and 15 mM glutathion. GST-VEGFR2806-1356 enriched fractions from this chromatography step are pooled based on U.V. trace i.e. fractions with high O.D^-280- Final GST-VEGFR2806-1356 protein preparations concentrations are about 0.7 mg/ml with purity approximating 70%. Purified GST-VEGFR2806-1356 protein stocks are aliquoted and frozen at −80° C. prior to use in enzymatic assay.
Inhibition of c-Met/HGF receptor and VEGFR/KDR is measured in a DELFIA™ assay (Perkin Elmer). The substrate poly(Glu4,Tyr) is immobilized onto black high-binding polystyrene 96-well plates. The coated plates are washed and stored at 4° C. During the assay, enzymes are pre-incubated with inhibitor and Mg-ATP on ice in polypropylene 96-well plates for 4 minutes, and then transferred to the coated plates. The subsequent kinase reaction takes place at 30° C. for 10-30 minutes. ATP concentrations in the assay are 10 uM for C-Met (5× the Km) and 0.6 uM for VEGFR/KDR (2× the Km). Enzyme concentration is 25 nM (C-Met) or 5 nM (VEGFR/KDR). After incubation, the kinase reactions are quenched with EDTA and the plates are washed. Phosphorylated product is detected by incubation with Europium-labeled anti-phosphotyrosine MoAb. After washing the plates, bound MoAb is detected by time-resolved fluorescence in a Gemini SpectraMax reader (Molecular Devices). Compounds are evaluated over a range of concentrations and IC50's (concentration of compounds giving 50% inhibition of enzymatic activity) are determined.

For a further test, the system named is A549. As to the kind of experiment: A549 wound healing inhibition. The settings on record: Homo sapiens; A549 cells; read-out: Potency in cell-based assays A549 wound healing inhibition.
For test [1], the target named is T2, recombinant human c-Met/HGF receptor (Homo sapiens, UniProt P08581).
T2 construct: His tag; made in house; host or cells: Hi-5 cells (Trichoplusia ni), recombinant baculovirus
T2 sequence (P08581 1078-1337): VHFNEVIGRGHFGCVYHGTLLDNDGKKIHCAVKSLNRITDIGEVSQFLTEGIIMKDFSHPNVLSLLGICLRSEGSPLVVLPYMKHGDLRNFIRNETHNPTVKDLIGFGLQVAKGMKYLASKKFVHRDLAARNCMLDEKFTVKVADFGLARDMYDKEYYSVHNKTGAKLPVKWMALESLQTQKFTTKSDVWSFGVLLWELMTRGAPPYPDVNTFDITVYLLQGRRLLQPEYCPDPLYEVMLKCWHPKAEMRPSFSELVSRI
As to the kind of experiment: In vitro receptor tyrosine kinase assay, c-Met (DELFIA). In kind it is biochemical. The settings on record: ATP 10 uM, enzyme 25 nM; read-out: Potency in enzyme assays Cmet.
Text: as §1
A 1.3-kb cDNA corresponding to the intracellular domain of c-Met or c-Met IC (Genbank accession number NP000236-1 amino acid […]) is cloned into the BamHI/XhoI sites of the pBlueBacHis2A vector (Invitrogen) for the production of a histidine-tagged version of that enzyme. This construct is used to generate recombinant baculovirus using the Bac-N-Blue™ system according to the manufacturer's instructions (Invitrogen).
The c-Met IC protein is expressed in Hi-5 cells (Trichoplusia Ni) upon infection with recombinant baculovirus construct. Briefly, Hi-5 cells grown in suspension and maintained in serum-free medium (Sf900 II supplemented with gentamycin) at a cell density of about 2×10^6 cells/ml are infected with the above-mentioned viruses at a multiplicity of infection (MOI) of 0.2 during 72 hours at 27° C. with agitation at 120 rpm on a rotary shaker. Infected cells are harvested by centrifugation at 398 g for 15 min. Cell pellets are frozen at −80° C. until purification is performed.
All steps described in cell extraction and purification are performed at 4° C. Frozen Hi-5 cell pellets infected with the C-Met IC recombinant baculovirus are thawed and gently resuspended in Buffer A (20 mM Tris pH 8.0, 10% glycerol, 1 μg/ml pepstatin, 2 μg/ml Aprotinin and leupeptin, 50 μg/ml PMSF, 50 μg/ml TLCK and 10 μM E64, 0.5 mM DTT and 1 mM Levamisole) using 3 ml of buffer per gram of cells. The suspension is Dounce homogenized after which it is centrifuged at 22500 g, 30 min., 4° C. The supernatant (cell extract) is used as starting material for purification of c-Met IC.
The supernatant is loaded onto a QsepharoseFF column (Amersham Biosciences) equilibrated with Buffer B (20 mM Tris pH 8.0, 10% glycerol) supplemented with 0.05M NaCl. Following a ten column volume (CV) wash with equilibration buffer, bound proteins are eluted with a 5 CV salt linear gradient spanning from 0.05 to 1M NaCl in Buffer B. Typically, the conductivity of selected fractions rank between 6.5 and 37 mS/cm. This Qsepharose eluate has an estimated NaCl concentration of 0.33M and is supplemented with a 5M NaCl solution in order to increase NaCl concentration at 0.5M and also with a 5M Imidazole (pH 8.0) solution to achieve a final imidazole concentration of 15 mM. This material is loaded onto a HisTrap affinity column (GE Healthcare) equilibrated with Buffer C (50 mM NaPO4 pH 8.0, 0.5M NaCl, 10% glycerol) supplemented with 15 mM imidazole. After a 10 CV wash with equilibration buffer and an 8 CV wash with buffer C+40 mM imidazole, bound proteins are eluted with an 8 CV linear gradient (15 to 500 mM) of imidazole in buffer C. C-Met IC enriched fractions from this chromatography step are pooled based on SDS-PAGE analysis. This pool of enzyme undergoes buffer exchange using PD-10 column (GE Healthcare) against buffer D (25 mM HEPES pH 7.5, 0.1M NaCl, 10% glycerol and 2 mM β-mercaptoethanol). Final C-Met IC protein preparations concentrations are about 0.5 mg/ml with purity approximating 80%. Purified c-Met IC protein stocks are supplemented with BSA at 1 mg/ml, aliquoted and frozen at −80° C. prior to use in enzymatic assay.
Inhibition of c-Met/HGF receptor and VEGFR/KDR is measured in a DELFIA™ assay (Perkin Elmer). The substrate poly(Glu4,Tyr) is immobilized onto black high-binding polystyrene 96-well plates. The coated plates are washed and stored at 4° C. During the assay, enzymes are pre-incubated with inhibitor and Mg-ATP on ice in polypropylene 96-well plates for 4 minutes, and then transferred to the coated plates. The subsequent kinase reaction takes place at 30° C. for 10-30 minutes. ATP concentrations in the assay are 10 uM for C-Met (5× the Km) and 0.6 uM for VEGFR/KDR (2× the Km). Enzyme concentration is 25 nM (C-Met) or 5 nM (VEGFR/KDR). […]

This note sets out measurements from patent US20080255155A1, “KINASE INHIBITORS AND USES THEREOF” (priority 2006, published 2008).

Bounds are passed on as bounds.

T1 sequence (P35968 806-1356): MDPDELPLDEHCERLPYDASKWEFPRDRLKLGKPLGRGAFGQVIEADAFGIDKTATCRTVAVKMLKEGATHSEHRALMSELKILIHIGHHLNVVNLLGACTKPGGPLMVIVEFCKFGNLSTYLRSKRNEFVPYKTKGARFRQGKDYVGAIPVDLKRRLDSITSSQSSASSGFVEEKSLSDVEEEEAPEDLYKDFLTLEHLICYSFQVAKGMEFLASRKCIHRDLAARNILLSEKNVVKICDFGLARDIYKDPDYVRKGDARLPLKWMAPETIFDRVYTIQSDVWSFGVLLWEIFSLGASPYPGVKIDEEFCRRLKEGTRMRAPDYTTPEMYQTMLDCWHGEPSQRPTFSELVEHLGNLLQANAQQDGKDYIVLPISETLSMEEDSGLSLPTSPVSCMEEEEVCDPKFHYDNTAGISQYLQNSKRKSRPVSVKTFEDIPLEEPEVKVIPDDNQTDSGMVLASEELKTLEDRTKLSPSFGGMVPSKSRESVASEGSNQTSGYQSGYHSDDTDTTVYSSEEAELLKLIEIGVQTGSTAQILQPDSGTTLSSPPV

Turning to `O=C(CC(Nc1ccc(F)cc1)C(F)(F)F)Nc1ccc(Oc2cc(NC(=O)N3CCCC3)ncn2)c(F)c1` (stereo not shown) [Compound 9a, N-(6-(2-Fluoro-4-(4,4,4-trifluoro-3-(4-fluorophenylamino)butanamido)phenoxy)pyrimidin-4-yl)pyrrolidine-1-carboxamide], the IC50 with DU145 was 5000 to 10000 nM; at VEGF receptor KDR, ≥ 1000 nM; in the test on A549 it was 1000 to 5000 nM; in test [1], ≥ 1000 nM.

As for `O=C(NCCN1CCOCC1)c1cc(Oc2ccc(NC(=O)N3CCN(c4ccccc4)C3=O)cc2F)ccn1` [Compound 87c], the IC50 in the test on DU145 was > 10000 nM; on VEGF receptor KDR, ≥ 1000 nM; in the test with A549, > 10000 nM; in test [1], ≥ 1000 nM.

For `CNC(=O)c1cc(Oc2ccc(NC(=O)N3CCN(c4ccccc4)C3=O)cc2F)ccn1` [Compound 87a, 4-(2-fluoro-4-(2-oxo-3-phenylimidazolidine-1-carboxamido)phenoxy)-N-methylpicolinamide], the IC50 with DU145 was in the range of 5000 to 10000 nM; at VEGF receptor KDR, 250 to 500 nM; in the test on A549, 1000 to 5000 nM; in test [1], 250 to 500 nM.

For the compound `O=C(Nc1ccc(Oc2cc(NC(=O)N3CCCC3)ncn2)c(F)c1)C1CCN(c2ccccc2)C1=O` (stereo not shown) [Compound 9b, N-(6-(2-Fluoro-4-(2-oxo-1-phenylpyrrolidine-3-carboxamido)phenoxy)pyrimidin-4-yl)pyrrolidine-1-carboxamide], the IC50 with DU145 was 5000 to 10000 nM; on VEGF receptor KDR, ≥ 1000 nM; in the test with A549, 5000 to 10000 nM; in test [1], ≥ 1000 nM.

On to `CN(C)[C@H]1CCN(C(=O)Nc2cc(Oc3ccc(NC(=O)N4CCN(c5ccc(F)cc5)C4=O)cc3F)ccn2)C1` [Compound 18h, (S)-N-(4-(2-(3-(dimethylamino)pyrrolidine-1-carboxamido)pyridin-4-yloxy)-3-fluorophenyl)-3-(4-fluorophenyl)-2-oxoimidazolidine-1-carboxamide], for which the IC50 with DU145 was ≥ 1000 nM; at VEGF receptor KDR, < 250 nM; with A549, ≥ 1000 nM; in test [1], < 250 nM.

For the compound `CC(=O)Nc1ccc(Oc2cccc(NC(=O)N3CCN(c4ccccc4)C3=O)c2)cn1` [Compound 31a, N-(3-(6-acetamidopyridin-3-yloxy)phenyl)-2-oxo-3-phenylimidazolidine-1′-carboxamide], the IC50 in the test on DU145 is 5000 to 10000 nM; on VEGF receptor KDR, ≥ 1000 nM; with A549, 1000 to 5000 nM; in test [1] it was 250 to 500 nM.

For `O=C(Nc1ccc(Oc2ccncc2)c(F)c1)N1CCN(c2cccc(Cl)c2)C1=O` [Compound 21g, 3-(3-chlorophenyl)-N-(3-fluoro-4-(pyridin-4-yloxy)phenyl)-2-oxoimidazolidine-1-carboxamide], the IC50 is 5000 to 10000 nM in the test with DU145, ≥ 1000 nM on VEGF receptor KDR, 5000 to 10000 nM in the test with A549 and 500 to 1000 nM in test [1].

With `O=C(Nc1cc(Oc2ccc(NC(=O)N3CCN(c4ccc(F)cc4)C3=O)cc2F)ccn1)N1CCCC1` [Compound 18b, N-(3-fluoro-4-(2-(pyrrolidine-1-carboxamido)pyridin-4-yloxy)phenyl)-3-(4-fluorophenyl)-2-oxoimidazolidine-1-carboxamide], the IC50 in the test with DU145 is ≥ 1000 nM; on VEGF receptor KDR, < 250 nM; in the test with A549, ≥ 1000 nM; in test [1], < 250 nM.

`CN(C)[C@@H]1CCN(C(=O)Nc2cc(Oc3ccc(NC(=O)N4CCN(c5ccccc5)C4=O)cc3F)ccn2)C1` [Compound 18e, (R)-N-(4-(2-(3-(dimethylamino)pyrrolidine-1-carboxamido)pyridin-4-yloxy)-3-fluorophenyl)-2-oxo-3-phenylimidazolidine-1-carboxamide]: the IC50 in the test on DU145 was ≥ 1000 nM; at VEGF receptor KDR, 250 to 500 nM; in the test on A549 it was ≥ 1000 nM; in test [1], < 250 nM.

On to `O=C(Nc1ccc(Oc2ccncc2)c(F)c1)N1CCN(c2ccccc2Cl)C1=O` [Compound 21h, 3-(2-chlorophenyl)-N-(3-fluoro-4-(pyridin-4-yloxy)phenyl)-2-oxoimidazolidine-1-carboxamide], for which the IC50 in the test on DU145 was ≥ 1000 nM; at VEGF receptor KDR it was ≥ 1000 nM; in the test on A549, 1000 to 5000 nM; in test [1], 500 to 1000 nM.
